# Like-named read-outs stand apart in the source and are kept apart here. Square brackets hold non-standard residues; d marks the D form. Peptide text beside a SMILES is read from it. Phe(4-I) = N[C@@H](Cc1ccc(I)cc1)C(=O)O; dPhe(4-I) = N[C@H](Cc1ccc(I)cc1)C(=O)O; 2Nal = N[C@@H](Cc1ccc2ccccc2c1)C(=O)O; d2Nal = N[C@H](Cc1ccc2ccccc2c1)C(=O)O
# Key:
# mMC3R [1] = molecular target: T1, mMC3R (Mus musculus, UniProt P33033); settings: earlier report; cited from earlier work
# mMC1R = mMC1R (Mus musculus, UniProt Q01727); experiment: AlphaScreen cAMP agonist assay, HEK293 cells stably expressing mMC1R; type: cell-based; settings: for mMC1R agonist activity in words: full agonist = 90% of maximal NDP-MSH signal; for mMC1R partial agonist percentage of receptor activation relative to NDP-MSH: partial agonists
# Chain of mMC1R (Q01727 whole entry): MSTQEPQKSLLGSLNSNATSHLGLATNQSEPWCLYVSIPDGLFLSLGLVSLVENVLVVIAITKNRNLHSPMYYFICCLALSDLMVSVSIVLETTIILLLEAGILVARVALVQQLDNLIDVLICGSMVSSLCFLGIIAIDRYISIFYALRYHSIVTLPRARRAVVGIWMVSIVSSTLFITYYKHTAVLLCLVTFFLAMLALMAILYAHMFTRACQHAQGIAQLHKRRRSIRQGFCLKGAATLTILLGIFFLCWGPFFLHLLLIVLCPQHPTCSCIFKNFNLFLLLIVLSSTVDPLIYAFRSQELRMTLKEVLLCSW
# mMC4R [2] = molecular target: T2, mMC4R (Mus musculus, UniProt P56450); settings: cited from earlier work
# T2 sequence (P56450 whole entry): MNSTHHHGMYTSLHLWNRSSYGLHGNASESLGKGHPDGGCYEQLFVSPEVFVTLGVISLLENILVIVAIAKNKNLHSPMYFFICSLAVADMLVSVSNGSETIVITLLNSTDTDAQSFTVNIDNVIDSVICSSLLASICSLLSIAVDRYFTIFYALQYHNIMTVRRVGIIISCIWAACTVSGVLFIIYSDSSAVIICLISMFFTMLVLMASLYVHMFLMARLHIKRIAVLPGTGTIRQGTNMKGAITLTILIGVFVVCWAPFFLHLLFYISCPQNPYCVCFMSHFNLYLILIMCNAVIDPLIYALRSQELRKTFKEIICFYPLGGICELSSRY
# mMC4R [3] = molecular target: T2, mMC4R; settings: earlier report; cited from earlier work
# MC3R = settings: at 2 μM; cited from earlier work
# MC5R = settings: cited from earlier work
# MC1R = settings: at 2 μM; cited from earlier work
# MC4R = settings: at 2 μM; cited from earlier work
# mMC3R [4] = molecular target: T1, mMC3R; experiment: AlphaScreen cAMP agonist assay, HEK293 cells stably expressing mMC3R; type: cell-based; settings: at 100 μM
# mMC5R = mMC5R (Mus musculus, UniProt P41149); experiment: AlphaScreen cAMP agonist assay, HEK293 cells stably expressing mMC5R; type: cell-based; settings: for mMC5R percent maximal stimulatory response (compared to NDP-MSH): at 100 μM; for mMC5R EC50: agonist, >100,000 = no agonist activity up to 100 μM
# Chain of mMC5R (P41149 whole entry): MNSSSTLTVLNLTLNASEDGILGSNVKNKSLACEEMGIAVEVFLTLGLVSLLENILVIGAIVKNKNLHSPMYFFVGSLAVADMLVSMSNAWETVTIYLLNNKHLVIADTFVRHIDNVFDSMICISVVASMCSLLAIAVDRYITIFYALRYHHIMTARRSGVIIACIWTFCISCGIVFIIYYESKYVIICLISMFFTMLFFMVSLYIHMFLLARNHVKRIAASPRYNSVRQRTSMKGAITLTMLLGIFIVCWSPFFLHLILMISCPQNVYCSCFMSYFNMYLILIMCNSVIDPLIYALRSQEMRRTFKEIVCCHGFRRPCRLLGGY
# [5] = system: mouse B16-F10 melanoma cells; settings: 30 and 100 μM, 100 nM α-MSH, 72 h; cited from earlier work
# hMC4R = settings: read-out: hMC4R IC50; tripeptide SAR study; cited from earlier work
# mMC4R [6] = molecular target: T2, mMC4R; settings: mMC4R versus mMC3R antagonist potency
# human (h)MC4R = settings: cited from earlier work
# hMC3R = settings: cited from earlier work
# hMC1R = settings: cited from earlier work
# hMC5R = settings: cited from earlier work
# [7] = compared to a control formulation lacking glycinamide; cited from earlier work
# T1 sequence (P33033 whole entry): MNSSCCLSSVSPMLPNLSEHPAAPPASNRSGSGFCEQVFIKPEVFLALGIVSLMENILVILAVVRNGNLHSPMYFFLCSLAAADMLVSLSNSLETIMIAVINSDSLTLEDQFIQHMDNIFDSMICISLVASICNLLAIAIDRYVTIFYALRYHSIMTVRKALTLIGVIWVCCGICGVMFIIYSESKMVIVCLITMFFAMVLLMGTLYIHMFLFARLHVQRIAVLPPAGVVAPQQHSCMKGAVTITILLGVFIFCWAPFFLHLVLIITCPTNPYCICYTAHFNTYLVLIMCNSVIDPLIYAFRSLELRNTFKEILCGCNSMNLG
molecule,measurement,setting,value
"CC(=O)N[C@H](Cc1ccc2ccccc2c1)C(=O)N[C@@H](CCCNC(=N)N)C(=O)N[C@H](Cc1ccc(I)cc1)C(=O)N[C@H](Cc1ccc2ccccc2c1)C(N)=O [Peptide 20, Ac-DNal(2’)-Arg-DPhe(pI)-DNal(2’)-NH2] (Ac-[d2Nal]R[dPhe(4-I)][d2Nal]-NH2)","mMC3R pA2, previously reported",mMC3R [1],5.6
same,mMC1R agonist activity in words,mMC1R,full agonist activity
same,"mMC4R partial agonist efficacy, % of the maximal NDP-MSH signal, previously reported",mMC4R [2]; earlier report,37%
same,"mMC4R pA2, previously reported",mMC4R [3],5.9
Ac-Nle-c[Asp-Oic-DBip-Pip-Trp-Lys]-NH2,MC3R activation,MC3R,up to 40%
same,EC50,MC5R; read-out: concentration activating the MC5R,0.99 nM
same,MC1R activation,MC1R,up to 40%
same,MC4R activation,MC4R,up to 40%
"CC(=O)N[C@H](Cc1ccc(I)cc1)C(=O)N[C@@H](CCCNC(=N)N)C(=O)N[C@H](Cc1ccc2ccccc2c1)C(=O)N[C@H](Cc1ccc2ccccc2c1)C(N)=O [Peptide 38, Ac-DPhe(pI)-Arg-DNal(2’)-DNal(2’)-NH2] (Ac-[dPhe(4-I)]R[d2Nal][d2Nal]-NH2)",mMC3R percent maximal stimulatory response (compared to NDP-MSH),mMC3R [4],45% @100μM
same,mMC5R percent maximal stimulatory response (compared to NDP-MSH),mMC5R,20% @100μM
H-RFWG-NH2,effect on α-MSH-stimulated melanin production,[5],inhibited α-MSH-stimulated melanin production
Ac-Ser-Tyr-Ser-Nle-Glu-Oic-DBip-Pip-Trp-Gly-Lys-Pro-Val-NH2 (WGKPV; N-terminal Ac-Ser-Tyr-Ser-Nle-Glu-Oic-DBip-Pip; C-terminal amide; printed: Trp-Gly-Lys-Pro-Val-),MC5R agonist potency in words,MC5R,sub-nanomolar MC5R agonist
"CC(=O)N[C@H](Cc1ccc(I)cc1)C(=O)N[C@@H](CCCNC(=N)N)C(=O)N[C@@H](Cc1c[nH]c2ccccc12)C(=O)N[C@@H](CCCNC(=N)N)C(N)=O [Peptide 42, Ac-DPhe(pI)-Arg-Trp-Arg-NH2] (Ac-[dPhe(4-I)]RWR-NH2)",mMC3R percent maximal stimulatory response (compared to NDP-MSH),mMC3R [4],25% @100μM
same,mMC1R partial agonist percentage of receptor activation relative to NDP-MSH,mMC1R,50 % NDP
"CC(=O)N[C@H](Cc1ccc(I)cc1)C(=O)N[C@@H](CCCNC(=N)N)C(=O)N[C@@H](Cc1c[nH]c2ccccc12)C(=O)N[C@H](Cc1ccc2ccccc2c1)C(N)=O [Peptide 41, Ac-DPhe(pI)-Arg-Trp-DNal(2’)-NH2] (Ac-[dPhe(4-I)]RW[d2Nal]-NH2)",mMC3R percent maximal stimulatory response (compared to NDP-MSH),mMC3R [4],25% @100μM
Ac-DNal(2’)-Arg-DNal(2’),IC50,hMC4R,36.5 nM
"CC(=O)N[C@H](Cc1ccc2ccccc2c1)C(=O)N[C@@H](CCCNC(=N)N)C(=O)N[C@@H](Cc1ccc2ccccc2c1)C(=O)N[C@H](Cc1ccc2ccccc2c1)C(N)=O [Peptide 23, Ac-DNal(2’)-Arg-Nal(2’)-DNal(2’)-NH2] (Ac-[d2Nal]R[2Nal][d2Nal]-NH2)",mMC3R percent maximal stimulatory response (compared to NDP-MSH),mMC3R [4],30% @100μM
same,mMC5R percent maximal stimulatory response (compared to NDP-MSH),mMC5R,25% @100μM
"CC(=O)N[C@H](Cc1ccc2ccccc2c1)C(=O)N[C@@H](CCCNC(=N)N)C(=O)N[C@@H](Cc1c[nH]c2ccccc12)C(=O)N[C@H](CCCCN)C(N)=O [Peptide 16, Ac-DNal(2’)-Arg-Trp-DLys-NH2] (Ac-[d2Nal]RW[dK]-NH2)",selectivity for the mMC4R over the mMC3R (antagonist),mMC4R [6],more than 150 fold
"CC(=O)N[C@H](Cc1ccc2ccccc2c1)C(=O)N[C@@H](CCCNC(=N)N)C(=O)N[C@H](Cc1ccc2ccccc2c1)C(=O)N[C@@H](CCCNC(=N)N)C(N)=O [Peptide 15, Ac-DNal(2’)-Arg-DNal(2’)-Arg-NH2] (Ac-[d2Nal]R[d2Nal]R-NH2)",mMC1R partial agonist percentage of receptor activation relative to NDP-MSH,mMC1R,60 % NDP
same,selectivity for the mMC4R over the mMC3R (antagonist),mMC4R [6],more than 150 fold
"CC(=O)N[C@H](Cc1ccc2ccccc2c1)C(=O)N[C@H](Cc1ccc2ccccc2c1)C(=O)N[C@H](Cc1ccc2ccccc2c1)C(=O)N[C@@H](CCCNC(=N)N)C(N)=O [Peptide 3, Ac-DNal(2’)-DNal(2’)-DNal(2’)-Arg-NH2]",mMC3R percent maximal stimulatory response (compared to NDP-MSH),mMC3R [4],35% @100μM
Ac-DNal(2’)-Arg-Nal(2’) [MCL0020],binding affinity at hMC4R,human (h)MC4R,11.63 nM
same,binding affinity at hMC3R,hMC3R,1115 nM
same,IC50,hMC4R,15.4 nM
same,concentration up to which radiolabeled NDP-MSH was not displaced at hMC1R,hMC1R,> 10 µM
H-RLWG-NH2,effect on α-MSH-stimulated melanin production,[5],inhibited α-MSH-stimulated melanin production
Ac-Nle-c[Asp-Pro-DNal(2’)-Arg-Trp-Lys]-NH2 [PG901],hMC5R agonist potency in words,hMC5R,sub-nanomolar agonist potency
"CC(=O)N[C@@H](Cc1ccc(I)cc1)C(=O)N[C@@H](Cc1ccc2ccccc2c1)C(=O)N[C@@H](Cc1ccc(I)cc1)C(=O)N[C@@H](CCCNC(=N)N)C(N)=O [Peptide 49, Ac-Phe(pI)-Nal(2’)-Phe(pI)-Arg-NH2] (Ac-[Phe(4-I)][2Nal][Phe(4-I)]R-NH2)",mMC5R EC50,mMC5R,did not possess agonist activity
same,mMC1R agonist activity in words,mMC1R,partially stimulate
"CC(=O)N[C@H](Cc1ccc(I)cc1)C(=O)N[C@H](Cc1ccc2ccccc2c1)C(=O)N[C@@H](Cc1c[nH]c2ccccc12)C(=O)N[C@@H](CCCNC(=N)N)C(N)=O [Peptide 30, Ac-DPhe(pI)-DNal(2’)-Trp-Arg-NH2]",mMC5R EC50,mMC5R,inactive
"CC(=O)N[C@H](Cc1ccc(I)cc1)C(=O)N[C@H](Cc1ccc2ccccc2c1)C(=O)N[C@@H](Cc1ccc2ccccc2c1)C(=O)N[C@H](CCCCN)C(N)=O [Peptide 34, Ac-DPhe(pI)-DNal(2’)-Nal(2’)-DLys-NH2] (Ac-[dPhe(4-I)][d2Nal][2Nal][dK]-NH2)",mMC3R percent maximal stimulatory response (compared to NDP-MSH),mMC3R [4],20% @100μM
"CC(=O)N[C@H](Cc1ccc2ccccc2c1)C(=O)N[C@@H](CCCNC(=N)N)C(=O)N[C@H](Cc1ccc2ccccc2c1)C(=O)N[C@H](Cc1ccc2ccccc2c1)C(N)=O [Peptide 14, Ac-DNal(2’)-Arg-DNal(2’)-DNal(2’)-NH2] (Ac-[d2Nal]R[d2Nal][d2Nal]-NH2)",mMC3R percent maximal stimulatory response (compared to NDP-MSH),mMC3R [4],50% @100μM
same,mMC5R percent maximal stimulatory response (compared to NDP-MSH),mMC5R,20% @100μM
same,mMC1R partial agonist percentage of receptor activation relative to NDP-MSH,mMC1R,85 % NDP
Ac-Oic-DBip-Pip-Trp-NH2,EC50,MC5R; read-out: MC5R agonist potency,1200 nM
"CC(=O)N[C@H](Cc1ccc(I)cc1)C(=O)N[C@@H](CCCNC(=N)N)C(=O)N[C@H](Cc1ccc(I)cc1)C(=O)N[C@H](CCCCN)C(N)=O [Peptide 43, Ac-DPhe(pI)-Arg-DPhe(pI)-DLys-NH2] (Ac-[dPhe(4-I)]R[dPhe(4-I)][dK]-NH2)",mMC1R agonist activity in words,mMC1R,full agonist activity
"CC(=O)N[C@H](Cc1ccc2ccccc2c1)C(=O)N[C@@H](CCCNC(=N)N)C(=O)N[C@@H](Cc1c[nH]c2ccccc12)C(=O)N[C@H](Cc1ccc2ccccc2c1)C(N)=O [Peptide 17, Ac-DNal(2’)-Arg-Trp-DNal(2’)-NH2] (Ac-[d2Nal]RW[d2Nal]-NH2)",mMC3R percent maximal stimulatory response (compared to NDP-MSH),mMC3R [4],40% @100μM
"CC(=O)N[C@H](Cc1ccc2ccccc2c1)C(=O)N[C@@H](CCCNC(=N)N)C(=O)N[C@H](Cc1ccc2ccccc2c1)C(=O)N[C@H](CCCCN)C(N)=O [Peptide 13, Ac-DNal(2’)-Arg-DNal(2’)-DLys-NH2] (Ac-[d2Nal]R[d2Nal][dK]-NH2)",mMC1R partial agonist percentage of receptor activation relative to NDP-MSH,mMC1R,30 % NDP
same,selectivity for the mMC4R over the mMC3R (antagonist),mMC4R [6],more than 150 fold
"CC(=O)N[C@H](Cc1ccc2ccccc2c1)C(=O)N[C@H](Cc1ccc2ccccc2c1)C(=O)N[C@@H](Cc1c[nH]c2ccccc12)C(=O)N[C@@H](CCCNC(=N)N)C(N)=O [Peptide 6, Ac-DNal(2’)-DNal(2’)-Trp-Arg-NH2] (Ac-[d2Nal][d2Nal]WR-NH2)",mMC3R percent maximal stimulatory response (compared to NDP-MSH),mMC3R [4],35% @100μM
NCC(N)=O [glycinamide],effect on α-MSH-stimulated melanin production,[5],possessed anti-melanogenic activity
same,effect on facial skin pigmentation,[7],decreased melanin index and skin pigmentation
"CC(=O)N[C@H](Cc1ccc(I)cc1)C(=O)N[C@@H](CCCNC(=N)N)C(=O)N[C@H](Cc1ccc(I)cc1)C(=O)N[C@H](Cc1ccc2ccccc2c1)C(N)=O [Peptide 44, Ac-DPhe(pI)-Arg-DPhe(pI)-DNal(2’)-NH2] (Ac-[dPhe(4-I)]R[dPhe(4-I)][d2Nal]-NH2)",mMC3R percent maximal stimulatory response (compared to NDP-MSH),mMC3R [4],40% @100μM
same,mMC5R percent maximal stimulatory response (compared to NDP-MSH),mMC5R,65% @100μM
same,mMC1R agonist activity in words,mMC1R,full agonist activity
"CC(=O)N[C@H](Cc1ccc2ccccc2c1)C(=O)N[C@@H](CCCNC(=N)N)C(=O)N[C@@H](Cc1ccc2ccccc2c1)C(=O)N[C@H](CCCCN)C(N)=O [Peptide 22, Ac-DNal(2’)-Arg-Nal(2’)-DLys-NH2] (Ac-[d2Nal]R[2Nal][dK]-NH2)",mMC1R partial agonist percentage of receptor activation relative to NDP-MSH,mMC1R,50 % NDP
"CC(=O)N[C@H](Cc1ccc(I)cc1)C(=O)N[C@@H](CCCNC(=N)N)C(=O)N[C@H](Cc1ccc(I)cc1)C(=O)N[C@@H](CCCNC(=N)N)C(N)=O [Peptide 45, Ac-DPhe(pI)-Arg-DPhe(pI)-Arg-NH2] (Ac-[dPhe(4-I)]R[dPhe(4-I)]R-NH2)",mMC1R agonist activity in words,mMC1R,full agonist activity
Ac-His-DPhe-Arg-Trp-NH2 [reference compound],mMC4R agonist potency in words,mMC4R [2],nanomolar agonist potency

# Source: paper PMC8533642 (Journal of medicinal chemistry, 2021)
